Laboratory results reported in US20250145631A1, “HETEROCYCLIC COMPOUND ACTING ON G12D MUTANT KRAS PROTEIN” (Astellas Pharma Inc., priority 2022, published 2025).

How the values were obtained:
Type in all cases: cell-based
[1] = tested on: human G12D mutant KRAS-positive pancreatic cancer line AsPC-1; assay: Non-anchorage-dependent cell growth inhibitory effect, spheroid 3D culture (Test Example 3); details: ASPC1, 144 h, AsPC-1 spheroid 3D culture, 6 days; for inhibition at 10 µM: read-out: cell growth inhibition at the highest concentration evaluated; for IC50: CellTiter Glo 2.0, read-out: IC50 (non-anchorage-dependent cell growth inhibition)
Method: The non-anchorage-dependent cell growth inhibitory effect of test compounds was evaluated by spheroid 3D cell culture.
AsPC-1 cells were seeded on low-cell-adhesive round bottom 384-well plates (PrimeSurface: from Sumitomo Bakelite) at 20 μL (or […])/well to give 5×10^2 cells per well. As for the cell culture conditions, RPMI 1640 medium containing 10% fetal bovine serum was used in the presence of 5% CO2 at 37° C.
The next day, the test compounds (10 points or 6 points having final concentrations in the range of 10 μM to 0.3 nM) and DMSO, which was the solvent for the test compounds, as a negative control were diluted 500-fold (or 100-fold) with a fresh medium and were added at 20 μL (or […]) per well. After culturing in the presence of 5% C02 at 37° C. for 6 days, CellTiter Glo 2.0 (from Promega) was added at 20 μL per well. After stirring with a plate mixer (from FINEPCR) at normal temperature for 1 hour, the luminescent signals were measured with ARVO X3 (from PerkinElmer).
(§1) With the signaling value in treatment with DMSO taken as 100% and with the signaling value in the medium alone without cells taken as 0%, the 50% inhibitory concentration values (IC50) were calculated by Sigmoid-Emax nonlinear regression analysis. The calculated 50% inhibition represents the inhibition at the highest concentration evaluated (10 μM) for a compound that exceeds the concentration in the evaluation range.
(§2) In the tables presented below, Ex represents Example No. The IC50 of Ex. 13, Ex. 15, and Ex. 16 were calculated using the molecular weights as tetrahydrochloride, and the IC50 of Ex. 14 was calculated using the molecular weight as trihydrochloride.

KRAS G12D = target: T1, KRAS G12D (Homo sapiens, UniProt P01116, G12D); assay: KRAS degradation activity by Cell ELISA in AsPC-1 cells (Test Example 1); details: for Dmax: ASPC1, overnight treatment, read-out: Dmax (degradation rate at the concentration showing highest degradation); for Dmax / DC50: Cell ELISA; for DC50: overnight treatment, read-out: DC50 (50% degradation concentration of KRAS)
T1 construct: host or cells: AsPC-1 (human pancreatic cancer line)
T1 sequence (P01116 1-188 isoform P01116-2 G12D): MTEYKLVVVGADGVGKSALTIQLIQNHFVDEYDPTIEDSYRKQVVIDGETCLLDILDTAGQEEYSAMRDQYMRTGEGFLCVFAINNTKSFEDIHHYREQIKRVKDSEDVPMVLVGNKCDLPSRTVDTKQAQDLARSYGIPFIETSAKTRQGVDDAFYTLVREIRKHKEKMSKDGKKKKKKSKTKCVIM
Method: The KRAS degradation activity of test compounds was evaluated by measuring the expression levels of KRAS G12D by Cell ELISA.
AsPC-1 cells were seeded at 20 μL per well on 384-well plates (from Greiner bio-one) to give 2.0×10^4 cells per well. As for the cell culture conditions, RPMI 1640 (from Sigma-Aldrich) medium containing 10% fetal bovine serum (from Cytiva) was used in the presence of 5% CO2 at 37° C.
The next day, the test compounds (10 points having final concentrations in the range of 10 μM to 0.3 nM) and DMSO (from FUJIFILM Wako Pure Chemical Corporation), which was the solvent for the test compounds, as a negative control were diluted 500-fold with a fresh medium and were added at 20 μL per well. The cells were cultured overnight. The next day, the culture supernatant was removed, and 4% paraformaldehyde phosphate buffer (from FUJIFILM Wako Pure Chemical Corporation) was added at 20 μL per well. The plates were allowed to stand for 30 minutes at room temperature to thus immobilize the cells. Then, the supernatant was removed, and 0.1% Triton X-100 (from Amersham Biosciences)-containing Phosphate buffered saline (PBS; from FUJIFILM Wako Pure Chemical Corporation) was added at 20 μL per well. After allowing to stand for 10 minutes at room temperature, the supernatant was removed. PBS was added at 25 μL per well, and the supernatant was removed to thus wash each well. The washing was performed twice in total. Next, the supernatant was removed, and 0.5% sodium dodecyl sulfate (SDS; from Invitrogen)-containing PBS was added at 20 μL per well. After allowing to stand at room temperature for 10 minutes, the supernatant was removed by a centrifugal operation (using a centrifugal dehydrator machine, the supernatant was removed by the same method hereinafter). PBS was added at 25 μL per well, and the supernatant was removed to thus wash each well. The washing was performed twice in total. The supernatant was removed, and blocking solution (Intercept Blocking Buffer; from Li—COR Biosciences) was added at 20 μL per well. After allowing to stand for 30 minutes at room temperature, the supernatant was removed, and a solution obtained by diluting anti-β-actin antibody (Anti-beta Actin antibody [mAbcam 8226]-Loading Control; from abcam) 1,000-fold with blocking solution and a solution obtained by diluting anti-Ras (G12D Mutant Specific) antibody (Ras (G12D Mutant Specific) (D8H7) Rabbit mAb #14429; from Cell Signaling Technology) and anti-β-actin antibody (from abcam) 1,000-fold with blocking solution were respectively added to positive control wells and the other wells at 15 μL per well as a primary antibody. The plates were allowed to stand overnight at 4° C.
The next day, the supernatant was removed. PBS was added at 25 μL per well, and the supernatant was removed to thus wash each well. The washing was performed twice in total. The supernatant was removed, and a solution obtained by diluting Donkey anti-Mouse IgG H&L (IRDye 680RD) (from Li—COR Biosciences) and Goat anti-Rabbit IgG H&L (IRDye 800CW) (from Li—COR Biosciences) 1,000-fold with blocking solution was added at 15 μL per well as a secondary antibody. A solution obtained by diluting Donkey anti-Mouse IgG H&L (IRDye 680RD) (from Li—COR Biosciences) 1,000-fold with blocking solution was added to a positive control well as a secondary antibody. After allowing to stand for 1 hour at room temperature, the supernatant was removed. PBS was added at […], and the supernatant was removed to thus wash each well. The washing was performed twice in total. After removing the supernatant, the plates were dried with air at room temperature for 2 hours or more, and the 700 nm and 800 nm fluorescent signals were measured with Aerius (from Li—COR Biosciences). […]

[2] = tested on: phosphorylation of ERK (Thr202/Tyr204); assay: ERK phosphorylation inhibitory effect by Cell ELISA in AsPC-1 cells (Test Example 2); details: Homo sapiens; for IC50: ASPC1, overnight treatment, Cell ELISA, read-out: IC50 (ERK phosphorylation inhibition)
Method: The ERK phosphorylation inhibitory effect of test compounds was evaluated by measuring phosphorylation of threonine 202 (Thr202) and tyrosine 204 (Tyr204) of ERK located downstream of the KRAS signal by Cell ELISA.
AsPC-1 cells were seeded on 384-well plates at 20 µL/well to give 2.0×10^4 cells per well. As for the cell culture conditions, RPMI 1640 medium containing 10% fetal bovine serum was used in the presence of 5% CO2 at 37° C.
The next day, the test compounds (10 points having final concentrations in the range of 10 μM to 0.3 nM), trametinib (MEK inhibitor) of a final concentration of […] as positive control and DMSO, which was the solvent for the test compounds, as negative control were diluted 500-fold with a fresh medium and were added at 20 μL per well. The cells were cultured overnight. After culturing, 30% glyoxal solution (40% glyoxal [from Nacalai Tesque]was diluted with PBS) was quickly added at 30 μL per well, and the plates were allowed to stand for 120 minutes at room temperature to thus immobilize the cells. Then, the plates were centrifuged to remove the supernatant (using a centrifugal dehydrator machine, the supernatant was removed by the same method hereinafter), and 0.10% Triton X-100-containing PBS was added at 20 μL per well. After allowing to stand for 10 minutes at room temperature, the supernatant was removed, and the same operation was further repeated. Next, 0.5% SDS-containing PBS was added at 20 μL per well, and after allowing to stand at room temperature for 30 minutes, the supernatant was removed. Subsequently, blocking solution (Intercept Blocking Buffer) was added at 20 μL per well, and the plates were allowed to stand for 1 hour at room temperature. The supernatant was removed, and an ERK (Thr202/Tyr204) phosphorylation antibody (Phospho-p44/42 MAPK (Erk 1/2) (Thr202/Tyr204) (D13.14.4E) XP Rabbit mAb; from Cell Signaling Technology) diluted 2,500-fold with blocking solution was added at 15 μL per well as a primary antibody. The plates were allowed to stand at 4° C. overnight.
The next day, the supernatant was removed. 0.05% Tween-20 (from Thermo Fisher Scientific)-containing PBS was added at 50 μL per well, and the supernatant was removed to thus wash each well. The washing was performed three times in total. After washing, Goat anti-Rabbit IgG H&L (IRDye 800CW) diluted 1,000-fold with blocking solution was added at 15 μL per well as a secondary antibody, and the plates were allowed to stand for 1 hour at room temperature. The supernatant was removed, and each well was washed three times with 0.05% Tween-20-containing PBS in the same manner as after the primary antibody reaction. After removing the supernatant, the plates were dried with air at room temperature for 3 hours or more, and the 800-nm fluorescent signals were measured with Aerius.
as §1, with “value at the time of addition of” for “value in treatment with”, “value at” for “value in”, “the time of addition of […] trametinib” for “the medium alone without cells”
as §2

Structure (SMILES) | inhibition at 10 µM [1] [%] | Dmax (KRAS G12D) [%] | DC50 (KRAS G12D) [µM] | IC50 [2] [µM] | IC50 [1] [µM] | degradation rate at the highest concentration evaluated (printed in DC50 column) (KRAS G12D; at 10 μM) [% at 10 μM] | inhibition at 10 µM ([2]; ASPC1, at 10 μM, read-out: ERK phosphorylation inhibition at the highest concentration evaluated) [%]
Cc1c(F)cc2[nH]ncc2c1-c1c(C2CC2)cc2c(N3C[C@@H]4C[C@H]3CN4)nc(OC3CCOCC3)nc2c1OCc1ccc(C(=O)N2CCN(Cc3ccc4c(c3)C(=O)N(C3CCC(=O)NC3=O)C4=O)CC2)cc1 (some centres unmarked) [Example 1] | 37 | 59 | 1.95 | 3.36 |  |  | 
CO[C@@H](C)COc1nc(O[C@@H]2CCNC2)c2cc(C3CC3)c(-c3c(C)c(F)cc4[nH]ncc34)c(OCc3ccc(C(=O)N4CCN(Cc5ccc6c(c5)n(C)c(=O)n6C5CCC(=O)NC5=O)C[C@@H]4C)cc3)c2n1 (some centres unmarked) [Example 39] |  | 83 | 0.022 | 0.03 | 0.052 |  | 
Cc1c(F)cc2[nH]ncc2c1-c1c(C2CC2)cc2c(N3C[C@@H]4C[C@H]3CN4)nc(OC3CCOCC3)nc2c1OCc1ccc(C(=O)N2CCN(Cc3ccc4c(c3)n(C)c(=O)n4C3CCC(=O)NC3=O)C[C@H]2C)cc1 (some centres unmarked) [Example 9] |  | 65 | 0.055 | 0.069 | 0.09 |  | 
Cc1c(F)cc2[nH]ncc2c1-c1c(C2CC2)cc2c(N3C[C@@H]4C[C@H]3CN4)nc(OC3CCOCC3)nc2c1OCc1ccc(C(=O)N2C[C@H]3C[C@@H]2CN3Cc2ccc3c(c2)C(=O)N(C2CCC(=O)NC2=O)C3=O)cc1 (some centres unmarked) [Example 4] | 22 | 40 |  |  |  | 40 | 33
Cc1c(N2CCC(=O)NC2=O)ccnc1OC1CCN(C(=O)c2ccc(COc3c(-c4c(C)c(F)cc5[nH]ncc45)c(C4CC4)cc4c(N5C[C@@H]6C[C@H]5CN6)nc(OC5CCOCC5)nc34)cc2)CC1 (atropisomer, axis not shown) [Example 21] |  | 52 | 4.96 | 2.28 | 0.852 |  | 
Cc1c(F)cc2[nH]ncc2c1-c1c(C2CC2)cc2c(N3C[C@@H]4C[C@H]3CN4)nc(OC3CCOCC3)nc2c1OCc1ccc(C(=O)N2CCN(CCc3ccc4c(c3)c(N3CCC(=O)NC3=O)nn4C)C[C@@H]2C)cc1 (atropisomer, axis not shown) [Example 42] |  | 89 | 0.294 | 0.365 | 0.399 |  | 
CO[C@H](C)COc1cc(O[C@H]2CCNC2)c2cc(C3CC3)c(-c3c(C)c(F)cc4[nH]ncc34)c(OCc3ccc(C(=O)N4CCN(Cc5ccc6c(c5)n(C)c(=O)n6C5CCC(=O)NC5=O)C[C@@H]4C)cc3)c2n1 (some centres unmarked) [Example 44] |  | 74 | 0.041 | 0.069 | 0.123 |  | 
Cc1c(F)cc2[nH]ncc2c1-c1c(C2CC2)cc2c(N3C[C@@H]4C[C@H]3CN4)nc(OC3CCOCC3)nc2c1OCc1ccc(C(=O)N2CCN(Cc3ccc4c(N5CCC(=O)NC5=O)nn(C)c4c3)C[C@H]2C)cc1 (atropisomer, axis not shown) [Example 15] |  | 60 | 0.406 | 0.503 | 0.211 |  | 
Cc1c(F)cc2[nH]ncc2c1-c1c(C2CC2)cc2c(O[C@H]3CCNC3)cc(OC[C@@H]3CCCO3)nc2c1OCc1ccc(C(=O)N2CCN(Cc3ccc4c(c3)n(C)c(=O)n4C3CCC(=O)NC3=O)C[C@@H]2C)cc1 (some centres unmarked) [Example 31] |  | 71 | 0.115 | 0.158 | 0.147 |  | 
Cc1c(F)cc2[nH]ncc2c1-c1c(C2CC2)cc2c(N3C[C@@H]4C[C@H]3CN4)nc(OC3CCOCC3)nc2c1OCc1ccc(C(=O)N2CCC(CN3CCN(c4cc5c(cc4F)C(=O)N(C4CCC(=O)NC4=O)C5=O)CC3)CC2)cc1 (some centres unmarked) [Example 2] | 55 | 59 | 4.9 | 4.77 |  |  | 
Cc1c(F)cc2[nH]ncc2c1-c1c(C2CC2)cc2c(O[C@H]3CCNC3)cc(OC[C@H]3CCCO3)nc2c1OCc1ccc(C(=O)N2CCN(Cc3ccc4c(c3)n(C)c(=O)n4C3CCC(=O)NC3=O)C[C@@H]2C)cc1 (atropisomer, axis not shown) [Example 32] |  | 78 | 0.046 | 0.069 | 0.06 |  | 
